Assay results as given in patent US20040072183A1, “Adhesive protein and uses thereof” (priority 2000, published 2004).

Columns and labels:
[1] = tested on: spiggin mRNA; assay: Methyltestosterone induction of spiggin mRNA via water in juvenile fish (slot blot, FIG. 5); format: in vivo, three spined stickleback; conditions: exposure via water, 10 days, whole fish homogenate
Procedure: Juvenile three spined sticklebacks, with a body weight of approximately 100 mg, were exposed to different doses (100 pM, 10 nM and 1 uM) of methyltestosterone or to a combination of 10 nM methyltestosterone and 10 uM flutamide (an antiandrogen). After 10 days the fish were sacrificed. Whole fish were homogenized and spiggin mRNA levels were determined using slot blot analysis.

[2] = tested on: spiggin; conditions: 11-KT treatment; cited from earlier work
[3] = tested on: spiggin mRNA; assay: Hormone implant dose response analysis of spiggin mRNA in kidney (slot blot, FIG. 3); format: in vivo, three-spined stickleback (Gasterosteus aculeatus); conditions: hormone in silastic capsule implanted in abdominal cavity, one month exposure
Procedure: Hormones at different concentrations were dissolved in […] of coconut oil and placed within silastic capsules (Dow Corning, internal diameter 0.6 mm, outer diameter 1.2 mm, length 5 mm). The sealed capsules were implanted into the abdominal cavity of each fish which were subsequently placed in aquaria containing 200 l of brackish water (0.5% salinity) at 17° C. under a stimulatory photoperiod of L:D 16:8. Following one month exposure the fish were sacrificed and the required organs removed by dissection and stored at −70° C.
[…] total RNA was combined with 90 ml of 20×SSC and 60 ml 37% formaldehyde. The final volume was adjusted to 300 ml with MQ water. Each preparation was transferred onto nylon membrane (Amersham Pharmacia Biotech) using a Minifold II Slot Blot apparatus (Schleicher & Schuell). The RNA was bound onto the membrane by cross-linking in a CL-1000 UV apparatus (UVP). Membranes were radioactively probed as described below (Paragraph 10) and the relative levels of mRNA were determined using a GS-250 Molecular Phosphoimager coupled to the Molecular Analyst (Version 1:41) package (Bio Rad). All dose-response determinations were performed in triplicate and the results were expressed as the mean (±SD) for each hormone and dose assayed. […]

Compound | Methyltestosterone concentration effective at inducing spiggin mRNA [1] [pM] | Inducibility of spiggin production [2] | Inducibility of spiggin expression in kidney [3]
C[C@]12CCC(=O)C=C1CC[C@@H]1[C@@H]2CC[C@@]2(C)[C@H]1CC[C@]2(C)O [methyltestosterone] | ≥ 100 | – | –
C[C@]12CC(=O)[C@H]3[C@@H](CCC4=CC(=O)CC[C@@]43C)[C@@H]1CC[C@@H]2O [11-ketotestosterone] | – | inducible | inducible
